In ChEMBL document CHEMBL1201862, “PubChem BioAssay data set” (2004):
Where “and” joins values, the source holds several entries; their conditions need not be identical. Equal entries are not always repeated. One block for each compound: values may come before it. Calls of active or inactive are those of the source.

Experiments:
[1] = biological target: T1, Heat shock factor protein 1 (Mus musculus, UniProt P38532); assay: decrease of HSF1-responsive luciferase luminescence – cell-based, NIH3T3, dose retest, confirmation (AID 2382); type: functional;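 further: NIH3T3 fibroblasts with HSF1-driven luciferase reporter stressed by proteasome inhibitor MG132; luminescence from HSF1-driven luciferase expression after 8 hours of MG132 stress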
T1 sequence (P38532 whole entry): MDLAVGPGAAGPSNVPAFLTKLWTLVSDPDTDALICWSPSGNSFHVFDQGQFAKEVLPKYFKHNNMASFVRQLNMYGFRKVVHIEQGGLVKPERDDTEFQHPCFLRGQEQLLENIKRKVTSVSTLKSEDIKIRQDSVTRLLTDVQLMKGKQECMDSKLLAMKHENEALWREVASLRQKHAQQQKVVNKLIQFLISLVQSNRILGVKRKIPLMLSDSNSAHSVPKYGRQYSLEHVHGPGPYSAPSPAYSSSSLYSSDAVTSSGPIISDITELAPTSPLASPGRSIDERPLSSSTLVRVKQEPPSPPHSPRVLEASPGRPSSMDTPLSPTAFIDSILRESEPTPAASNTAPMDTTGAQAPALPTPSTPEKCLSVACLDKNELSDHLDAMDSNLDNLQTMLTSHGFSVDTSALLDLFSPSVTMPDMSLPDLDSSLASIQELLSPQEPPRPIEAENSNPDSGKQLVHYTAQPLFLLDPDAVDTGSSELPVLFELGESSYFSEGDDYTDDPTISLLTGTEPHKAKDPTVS

[2] = biological target: Cytochrome P450 2C9 (Homo sapiens, UniProt P11712)
[3] = Trypanosoma cruzi growth suppression in host cells – NIH3T3 host cells, beta-gal luminescence, confirmation (AID 2044); type: functional, cell-based;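 further: intracellular parasites grown in NIH/3T3 mouse fibroblasts as host cells; luminescent beta-galactosidase reporter signal from transgenic T. cruzi replicating inside host cells; inhibitors lower the luminescence signal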
[4] = NIH3T3 cell viability loss – ATP luminescence, mouse fibroblasts, counter-screen, dose response (AID 2010); type: functional, cell-based;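 further: cells exposed to compound for about 90 hours before reading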
[5] = biological target: Cytochrome P450 2C19 (Homo sapiens, UniProt P33261); assay: Cytochrome panel assay with activity outcomes. Panel member name: p450-cyp2c19 Compounds with AC50 equal or less than 10 uM are considered active; type: functional
[6] = biological target: Cytochrome P450 2D6 (Homo sapiens, UniProt P10635);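 further: CYP2D6 member of a cytochrome P450 panel assay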
[7] = tested on: Streptococcus; assay: GAS UMAA2166 growth inhibition – luminescence, BacTiterGlo, counter-screen for streptokinase expression inhibitor project, dose response (AID 1915); type: functional, organism-based;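 further: potency for reduction of bacterial viability or growth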
[8] = tested on: Streptococcus sp. 'group A'; assay: Streptococcus pyogenes SK(-)GAS viability under kanamycin – luminescence, BacTiterGlo, confirmation, counter-screen for streptokinase expression inhibitor project, dose response (AID 1900); type: functional, organism-based

Sequence of Cytochrome P450 2C19 (P33261 whole entry): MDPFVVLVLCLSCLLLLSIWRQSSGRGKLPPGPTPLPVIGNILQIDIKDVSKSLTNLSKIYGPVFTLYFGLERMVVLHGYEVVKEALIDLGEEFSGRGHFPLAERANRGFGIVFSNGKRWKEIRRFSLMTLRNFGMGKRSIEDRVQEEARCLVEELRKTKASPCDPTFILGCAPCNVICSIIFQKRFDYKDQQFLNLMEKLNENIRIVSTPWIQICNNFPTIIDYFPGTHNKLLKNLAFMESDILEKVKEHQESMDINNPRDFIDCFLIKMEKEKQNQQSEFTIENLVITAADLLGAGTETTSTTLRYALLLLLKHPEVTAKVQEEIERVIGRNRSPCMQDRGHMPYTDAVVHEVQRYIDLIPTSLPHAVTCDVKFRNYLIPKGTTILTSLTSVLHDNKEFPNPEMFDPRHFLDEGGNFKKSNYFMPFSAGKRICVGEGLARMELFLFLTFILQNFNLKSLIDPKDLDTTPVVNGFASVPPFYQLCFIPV
Sequence of Cytochrome P450 2C9 (P11712 whole entry): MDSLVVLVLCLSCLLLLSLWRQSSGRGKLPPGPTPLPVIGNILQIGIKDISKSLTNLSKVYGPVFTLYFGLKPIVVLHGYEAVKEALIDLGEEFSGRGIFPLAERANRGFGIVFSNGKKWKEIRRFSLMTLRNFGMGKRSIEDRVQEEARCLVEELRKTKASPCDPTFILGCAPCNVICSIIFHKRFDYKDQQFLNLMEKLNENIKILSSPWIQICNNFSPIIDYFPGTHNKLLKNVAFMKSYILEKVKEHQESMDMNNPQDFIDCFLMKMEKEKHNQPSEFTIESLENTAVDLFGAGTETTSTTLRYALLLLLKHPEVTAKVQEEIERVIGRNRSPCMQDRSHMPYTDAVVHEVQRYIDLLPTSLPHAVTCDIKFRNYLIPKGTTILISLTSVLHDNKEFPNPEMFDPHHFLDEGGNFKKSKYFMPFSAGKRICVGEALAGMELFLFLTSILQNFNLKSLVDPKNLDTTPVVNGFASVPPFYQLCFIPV
Sequence of Cytochrome P450 2D6 (P10635 whole entry): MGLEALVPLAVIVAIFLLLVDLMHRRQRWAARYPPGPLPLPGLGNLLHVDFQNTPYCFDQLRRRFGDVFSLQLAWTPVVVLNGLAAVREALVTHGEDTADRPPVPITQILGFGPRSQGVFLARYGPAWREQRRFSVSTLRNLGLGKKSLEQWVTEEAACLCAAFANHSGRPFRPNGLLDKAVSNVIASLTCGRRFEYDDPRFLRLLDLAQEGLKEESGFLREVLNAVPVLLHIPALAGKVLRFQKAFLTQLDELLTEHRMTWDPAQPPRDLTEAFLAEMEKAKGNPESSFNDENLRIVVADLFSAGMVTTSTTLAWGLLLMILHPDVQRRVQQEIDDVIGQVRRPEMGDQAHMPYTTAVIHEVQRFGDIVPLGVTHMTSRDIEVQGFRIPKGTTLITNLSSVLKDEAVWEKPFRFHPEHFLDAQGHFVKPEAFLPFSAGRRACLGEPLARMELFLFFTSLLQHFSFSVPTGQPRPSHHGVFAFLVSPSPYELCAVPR

SMILES: CC(C)C(=O)N1CCN(c2cc(N3CCN(C)CC3)c(F)cc2[N+](=O)[O-])CC1
EC50 [3]: 0.625 µM (active)
EC50 [4]: > 60 µM (not active)

SMILES: O=C(NC(=S)N(CCCCO)C1CCCCC1)c1sc2ccccc2c1Cl
AC50 [6]: 22.4 µM (inconclusive)
EC50 [7]: 7.75 µM (active)
EC50 [8]: 0.891 µM (active)

SMILES: Cc1noc(C)c1-c1cncnc1N1CCN(C)CC1
AC50 [5]: inconclusive
AC50 [6]: 39.8 µM (inconclusive)

SMILES: CC(C)c1ccc(NC(=O)c2cc3c(=O)n(C)c4ccccc4c3n2C)cc1
EC50 [3]: 1.12 µM (active)
EC50 [4]: 16.2 µM (active)

SMILES: C=CC[C@@H]1C=C[C@H](O/N=C2\c3cc(OC)ccc3O[C@H](c3cccc(OC)c3)[C@H]2O)[C@H](CO)O1
AC50 ([5]; read-out: AC50): 3.16 µM (inconclusive)
AC50 [6]: 5.01 µM (inconclusive)

SMILES: C[N+]12CCC(CC1)[C@@H](OC(=O)C(O)(c1ccccc1)c1ccccc1)C2
AC50 [6]: 12.6 µM (inconclusive)

SMILES: CCOc1ccc(-c2cc(C(=O)OC)nc3c2c(=O)n(C)c(=O)n3C)cc1
EC50 [7]: 4.33 µM (active)
EC50 [8]: 0.063 µM (active)

SMILES: COc1ccc(CCNCC(O)COc2cccc(C(C)=O)c2)cc1OC (centres undefined)
EC50 [3]: 0.225 µM (active)
EC50 [4]: > 60 µM (not active)

SMILES: Cc1cc(C(F)(F)F)n2nc(-c3cnn(C)c3C(F)(F)F)c(Cl)c2n1
AC50 [2]: 20 µM (inconclusive)

SMILES: O=C(Cn1cnc2cc([N+](=O)[O-])ccc2c1=O)NC(=O)NCc1ccccc1
EC50 [3]: 0.223 µM (active)
EC50 [4]: > 60 µM (not active)

SMILES: FC(F)(F)c1cccc(NC(S)=NN=C(S)Nc2ccc(Cl)cc2)c1
EC50 [7]: 5.47 µM (active)
EC50 [8]: 3.28 µM (active)

SMILES: COc1ccc(CCNC(=O)c2cc3c(=O)n4ccccc4nc3n(C3CCCCC3)c2=N)cc1
EC50 [3]: 2.17 µM (active)
EC50 [4]: > 60 µM (not active)

SMILES: COc1ccc(C(=O)Nc2ccc(S(=O)(=O)N3CCCC3)cc2)c(OC)c1
EC50 [3]: 11.1 µM (active)
EC50 [4]: > 60 µM (not active)

SMILES: Cc1ccc(N(Cc2ccco2)C(=O)c2ccc(N3CCCCC3)c([N+](=O)[O-])c2)cc1
EC50 [3]: 1.27 µM (active)
EC50 [4]: > 60 µM (not active)

SMILES: O=[N+]([O-])c1nn(-c2ccccc2)[n+]([O-])c1N1CCN(c2ccccc2)CC1
EC50 [3]: 0.483 µM (active)
EC50 [4]: > 60 µM (not active)

SMILES: Nc1ccccc1Nc1cc(-c2ccccc2)nn1-c1ccccc1
EC50 [3]: 7.72 µM (active)
EC50 [4]: > 60 µM (inconclusive)

SMILES: Clc1ccc(SCCN2CCNCC2)cc1
EC50 [3]: 0.511 µM (active)
EC50 [4]: 9.8 µM (active)

SMILES: O=c1c2ccccc2ncn1-c1ccc([N+](=O)[O-])cc1[N+](=O)[O-]
EC50 [3]: 0.524 µM (active)
EC50 [4]: > 60 µM (not active)

SMILES: Cc1cc(C)c2nc(O)c(C(c3nnnn3CC3CCCO3)N3CCC(C)CC3)cc2c1 (centres undefined)
EC50 [1]: > 195 µM (not active)

SMILES: C/C(=N\Nc1nc2ccccc2[nH]1)c1ccc2c(c1)OCCO2
EC50 [3]: 1.89 µM (active)
EC50 [4]: > 60 µM (not active)

SMILES: N=C(N)N/N=C/c1cccc(Cl)c1Cl
EC50 [3]: 0.435 µM (active)
EC50 [4]: > 60 µM (not active)

SMILES: CCOC(=O)c1cc2c(=O)n3ccccc3nc2n(C(C)C)/c1=N/C(=O)c1c(-c2ccccc2Cl)noc1C
EC50 [3]: 2.4 µM (active)
EC50 [4]: > 30 µM (not active)

SMILES: Cc1c2c(n3c(nc4ccccc43)c1C#N)N(CCN(C)C)CC2
EC50 [3]: 0.117 µM (active)
EC50 [4]: 20.6 µM (active)

SMILES: Cc1cccc(C)c1OC[C@H](C)N [(S)-MEXILETINE]
AC50 [6]: 7.94 µM (inconclusive) and 39.8 µM (inconclusive)

Results, then the compound that gave them:

EC50 [1]: > 195 µM (not active)
SMILES: Cc1ccc(OCC(O)CN2C(=O)NC(C)(C)C2=O)cc1C (centres undefined)

AC50 [2]: 22.4 µM (inconclusive)
SMILES: Cc1ccnc(NCn2nnc3ccccc32)c1

AC50 [5]: inconclusive
SMILES: CN1C(=O)CC(NNC(=O)c2ccccc2)C1=O (centres undefined)

AC50 ([5]; read-out: AC50): 39.8 µM (inconclusive)
SMILES: CCOC(=O)N1CCC(NC(=O)CS(=O)(=O)Cc2nc(-c3cccc(OC)c3)oc2C)CC1

AC50 ([5]; read-out: AC50): 1.78 µM (inconclusive)
AC50 [2]: 14.1 µM (inconclusive)
SMILES: Cc1c(Cl)c([N+](=O)[O-])nn1CC(=O)Nc1c(C)n(C)n(-c2ccccc2)c1=O

EC50 [1]: > 195 µM (not active)
SMILES: COc1ccc(-n2c(-c3ccc(F)cc3)cnc2SCC(=O)NCc2ccco2)cc1

AC50 ([5]; read-out: AC50): 6.31 µM (inconclusive)
AC50 [2]: 1 µM (inconclusive)
SMILES: O=[N+]([O-])c1cccc(/C=N\Nc2ccc3ccccc3n2)c1O

AC50 [2]: 8.91 µM (inconclusive)
SMILES: COC(=O)c1ccccc1NC(=O)C1CCN(C(=O)c2ccc(OC)cc2)CC1

AC50 ([5]; read-out: AC50): 2.82 µM (inconclusive)
AC50 [6]: 3.98 µM (inconclusive)
SMILES: Cc1c(C(=O)Nc2nccs2)sc2nc(-c3cccs3)cc(C(F)(F)F)c12

EC50 [1]: > 195 µM (not active)
SMILES: Cc1ccc(/C=C/C(=O)Nc2ccc(O)c3c(=O)cc(-c4ccccc4Cl)oc23)cc1

EC50 [1]: > 195 µM (not active)
SMILES: CCCCN(C(=O)COc1ccc(C)cc1OC)c1c(N)n(CCC)c(=O)[nH]c1=O

EC50 [1]: > 195 µM (not active)
SMILES: CN(CC(=O)NCc1cccnc1)S(=O)(=O)c1ccc2c(c1)c(=O)n(C)c(=O)n2C

AC50 [6]: 31.6 µM (inconclusive)
SMILES: COc1cccc(-c2ccc3ncnc(NCc4cnc(C)cn4)c3c2)c1

AC50 [2]: 25.1 µM (inconclusive)
SMILES: CC(=O)N1CCC2(CC1)CCN(c1ccc(-c3ccccc3)cc1)CC2

AC50 [2]: 0.0158 µM (inconclusive)
SMILES: COc1ccccc1CNc1ccnc(-c2ccccc2C(F)(F)F)n1

EC50 [1]: > 195 µM (not active)
SMILES: CCN(c1ccccc1)S(=O)(=O)c1ccc(Cl)c(C(=O)N(CC2CCCO2)C2CCS(=O)(=O)C2)c1 (centres undefined)

AC50 ([5]; read-out: AC50): 35.5 µM (inconclusive)
SMILES: O=C1N=C(N2CCOCC2)S/C1=C\C=C/c1ccccc1

EC50 [1]: > 195 µM (not active)
SMILES: O=C(CS(=O)(=O)Cc1ccccc1)NCC1CCCO1 (centres undefined)

EC50 [1]: > 195 µM (not active)
SMILES: Cc1ccccc1OCC(=O)OCC(=O)c1ccc(-c2ccccc2)cc1

EC50 [1]: > 195 µM (not active)
SMILES: CC1(C)Cc2nc3[nH]c(=S)n(-c4ccccc4)c(=O)c3cc2CO1

AC50 [2]: 0.126 µM (inconclusive)
SMILES: COC(=O)c1cc(NC(=O)/C=C/c2ccc3c(c2)OCO3)cc(C(=O)OC)c1

AC50 [6]: 15.8 µM (inconclusive)
SMILES: Cc1cc(N2CCOCC2)nc(SCc2ccc(Cl)cc2Cl)n1

AC50 [6]: 28.2 µM (inconclusive)
SMILES: CCC(C(=O)NC(C)(C)C)N(C(=O)Cn1nnc(-c2cccs2)n1)c1cnc2ccccc2c1 (centres undefined)

EC50 [1]: > 195 µM (not active)
SMILES: COc1cccc(C(=O)CC(=O)C(=O)Nc2cc(OC)c(OC)c(OC)c2)c1

AC50 [2]: 0.0251 µM (inconclusive)
SMILES: CC1CC(OCC(O)CN2CCN(Cc3ccccc3)CC2)CC(C)(C)C1 (centres undefined)

EC50 [1]: > 195 µM (not active)
SMILES: CCC(C)c1ccc(NC(=O)C2CC2)cc1 (centres undefined)

AC50 ([5]; read-out: AC50): 15.8 µM (inconclusive)
AC50 [2]: 31.6 µM (inconclusive)
SMILES: O=C(c1cnccn1)N1CCC2(CC1)CN(Cc1ccccc1)C2

AC50 [2]: 3.16 µM (inconclusive)
SMILES: Cc1ccc(C)c(NC(=O)C2C3CCCC2C3c2ccccc2)c1 (centres undefined)

AC50 [6]: 0.891 µM (inconclusive)
SMILES: Cc1nn(-c2ccccc2)c2c1C(=O)N(Cc1ccccc1)C(=O)C(C)(C)C2

EC50 [1]: > 195 µM (not active)
SMILES: CC(C)(C)OC(=O)N[C@@H](Cc1ccccc1)C(=O)NC[C@H]1CC[C@H](C(=O)N[C@@H](CC(=O)O)C(=O)O)CC1

AC50 [2]: 20 µM (inconclusive)
SMILES: CSc1nc(C)c(CCOC(=O)c2ccccc2)c(O)n1

AC50 [2]: 0.112 µM (inconclusive)
SMILES: CCCNC(=O)c1c(C)cc(=O)oc1C

AC50 [2]: 20 µM (inconclusive)
SMILES: Cc1cc(C)cc(NC(=O)N2CCCC2C(=O)Nc2ccc(-n3cnnn3)c(C)c2)c1 (centres undefined)

EC50 [1]: > 195 µM (not active)
SMILES: C=CCN1C(=O)C(Cc2ccc(OC)cc2)S/C1=N/N=C/c1ccco1 (centres undefined)

EC50 [1]: > 195 µM (not active)
SMILES: Cc1nn2c(=O)c(Cl)c(C)[nH]c2c1-c1ccccc1
